Assay results from US20050267136A1, “Method of inhibiting dihydrofolate reductase; screening assay for the identification of novel therapeutics and their cellular targets” (McMaster University, priority 2003, published 2005).
Converted amounts (≈) assume the structure as drawn. Where two headings read alike, the source gives them in different places.

Legend:
E. coli strain MC1061 [1] = experiment: Duplicate screen of 1000 Maybridge compounds for growth inhibition; format: cell-based, Escherichia coli; settings: 10 μL of 1 mM compound in 200 μL/well, 36 hours at 37° C., OD 600 nm
Method: In addition to proof of principle work using well-characterized antibiotics a preliminary screen against a 1000 compound, non-proprietary commercial library from Maybridge (Cornwall, England) was also done. First the identification of compounds with activity against E. coli by screening for inhibition of growth was done. […] To each test well 10 μL of screening compound (1 mM in DMSO) was added and the plate incubated for 36 hours at 37° C. with shaking (150 rpm) before reading the optical density (600 nm). […] The result of this duplicate screen was the identification of 15 compounds with statistically significant antibacterial activity.

E. coli strain MC1061 [2] = experiment: Retest minimum inhibitory concentration on LB-ST agar; settings: Escherichia coli, MC1061, read-out: Retest Minimum Inhibitory Concentration
[3] = test system: MC1061 transformed with the genomic library (the screening pool); format: cell-based, Escherichia coli; settings: LB agar-ST; concentration lethal to MC1061
E. coli MC1061/pGEM7 = experiment: microbe, parasite or virus in culture; format: cell-based, Escherichia coli; settings: for MIC: Escherichia coli, MC1061/PGEM7, read-out: MIC, minimum growth inhibitory concentration
[4] = test system: S. cerevisiae DL1 (His, Leu, Ura)/pGAL; experiment: MIC of compounds versus yeast; format: cell-based; settings: Saccharomyces cerevisiae; agar plates, 72 hours, read visually
[5] = test system: E. coli MC1061 harboring a multicopy genomic library cloned into pGEM7; experiment: Multicopy suppression selection with the selection pool, Example 5; format: cell-based, Escherichia coli; settings: LB-Str-Amp agar, 10^5 cells
E. coli MC1061 = experiment: Minimum inhibitory concentration determination in LB broth; format: cell-based, Escherichia coli
[6] = test system: E. coli CW2553 containing pAK01 and pBAD18-folA (strain EB492); settings: increasing DHFR expression from pBAD18-folA
E. coli DHFR [7] = biological target: T1, E. coli DHFR (Escherichia coli, UniProt P0ABQ4); experiment: DHF reductase activity assay of recombinant E. coli DHFR (decrease of NADPH at 340 nm); primary screen and IC50 determination; format: biochemical; settings: true competitive inhibitor should equal 2.8
T1 construct: The gene was cloned lacking a stop codon into NdeI and XhoI digested pET26b to form pET26b-folA; made in house

E. coli DHFR [8] = biological target: T1, E. coli DHFR; experiment: Determination of kinetic inhibition constants; format: biochemical; settings: NADPH 80 μM, dihydrofolate 10 to 300 μM, competitive inhibition
[9] = test system: E. coli MC1061 clones harboring pGEM7-acrB; format: cell-based, Escherichia coli; settings: from MIC in LB-Str-Amp, relative to E. coli MC1061 containing pGEM7
[10] = Escherichia coli, MC1061, 16 hr at 37° C., OD600 less than 0.1, read-out: MIC
[11] = 16 hr at 37° C., OD600 less than 0.1

SMILES	Growth in Primary Screens, first value of the duplicate (E. coli strain MC1061 [1])	Growth in Primary Screens, second value of the duplicate (E. coli strain MC1061 [1])	MIC (E. coli strain MC1061 [2])	MIC (E. coli MC1061; [10])	other results
Nc1nc(-c2ccc(-n3cccc3)cc2)cc(C(F)(F)F)n1 [BTB14887]	37%	30%	125 µg/mL (≈ 411 µM)		
N[C@@H]1CON=C1O [Cycloserine, D-cycloserine]					growth inhibitory concentration to which clones isolated from the screening pool were resistant [3]: 160 µg/mL; MIC (E. coli MC1061/pGEM7): 80 µg/mL (≈ 784 µM)
OC(Cn1cncn1)(Cn1cncn1)c1ccc(F)cc1F [Fluconazole]					MIC [4]: 32 µg/mL
COc1cc(Cc2cnc(N)nc2N)cc(OC)c1OC [Trimethoprim]				0.03 µg/mL (≈ 0.103 µM)	MIC (E. coli MC1061/pGEM7): 0.078 µg/mL (≈ 0.269 µM); MIC, minimum growth inhibitory concentration (E. coli MC1061/pGEM7; LB agar containing ampicillin (50 μg/mL) and streptomycin (50 μg/mL)): 0.078 µg/mL (≈ 0.269 µM); concentration at which suppressor clones were evident [5]: 0.64 µg/mL
CSC(=N)NC(=S)Nc1cccc(Cl)c1 [RJF01047]	6.0%	12%	125 µg/mL (≈ 481 µM)		
Cc1ccc(Oc2cccc3nc(N)nc(N)c23)cc1 [Compound 4]				4 µg/mL (≈ 15 µM)	MIC (E. coli MC1061; [11]): 4.0 µg/mL (≈ 15 µM); dependence of the MIC on arabinose (inducer) concentration [6]: demonstrated an inducer dependence
O=C(Oc1c(Cl)cc(Cl)c2cccnc12)c1cccs1 [RH00852]	2.7%	2.8%	16 µg/mL (≈ 49.4 µM)		
C[C@@H]1O[C@@H]1P(=O)(O)O [Fosfomycin]					growth inhibitory concentration to which clones isolated from the screening pool were resistant [3]: 320 µg/mL; MIC (E. coli MC1061/pGEM7): 80 µg/mL (≈ 579 µM)
Clc1ccc(Cc2n[nH]cc2Sc2ccc(Cl)cc2)cc1 [SPB04137]	2.3%	2.1%	500 µg/mL (≈ 1490 µM)		
Nc1nc(N)c2c(Sc3ccc(Cl)cc3)cccc2n1 [Compound 2]				4 µg/mL (≈ 13.2 µM)	MIC (E. coli MC1061; [11]): 4.0 µg/mL (≈ 13.2 µM)
Cc1ccc(Sc2cccc3nc(N)nc(N)c23)cc1 [Compound 1]				8 µg/mL (≈ 28.3 µM)	
Nc1nc(N)c2c(Oc3ccc(F)cc3)cccc2n1 [Compound 3]				16 µg/mL (≈ 59.2 µM)	
N#CC(C#N)=NNc1cc(C(F)(F)F)cc(C(F)(F)F)c1 [SEW04978]	0.2%	0.02%	32 µg/mL (≈ 105 µM)		growth inhibitory concentration to which clones isolated from the screening pool were resistant [3]: 64 µg/mL
CC1CCc2c(N)nc(N)nc2C1 (stereo not drawn) [Compound 6]				64 µg/mL (≈ 359 µM)	IR, IC50 ratio (IC50 in the presence of 100 μM DHF) / (IC50 in the presence of 30 μM DHF) (E. coli DHFR [7]): 2.3; Ki (E. coli DHFR [8]): 1.1 µM; fold suppression by pGEM7-acrB [9]: 4 fold
